This is an account of results in publication PMC10622513, “A fluorogenic, peptide-based probe for the detection of Cathepsin D in macrophages” (Communications Chemistry, 2023).

Entries after “also recorded” stand apart in the source; their conditions may differ.

On the set-up of data set [1]: method as in PMID 29876538. As to conditions: acids such as TFA or HCl; cited from earlier work. From the text:
The Methyl Red (MR) quencher was incorporated by coupling Fmoc-Lys(MR)-OH[20] onto a Rink-amide functionalised polystyrene resin (0.7 mmol/g), followed by the substrate sequence, using DIC and Oxyma as the coupling combination. The use of Fmoc-Lys(MR)-OH as a building block avoided the need for orthogonal deprotection on the resin[27],[28]. A bis-ethylene glycol spacer was introduced as the last amino acid before the fluorophore to increase hydrophilicity and promote aqueous solubility of the probe. The BODIPY (1,3,5,7-tetramethyl-8-phenyl-4,4-difluoroboradiazaindacene) fluorophore chosen as p ...

For data set [2] the following is noted: cited from earlier work. An excerpt: The new probe designed here was FRET-based, with a BODIPY fluorophore at the N-terminus, while the C-terminal Gln was replaced with a Lys residue functionalised with a quencher (Methyl Red, λmax 500 nm)[20].
A further data set deals with human cathepsin D. As to conditions: cited from earlier work. From the text:
Herein, we report the design and synthesis of a fluorogenic probe, based on a specific substrate for CatD, which provides an OFF→ON signal upon activation with good signal amplification. […] When choosing a substrate to build an optical probe to be used in cells and potentially in vivo, control of cross-reactivities is vital and it is important to design a specific substrate that is not ...

For data set [3], the system named is CatD activity in human monocyte-derived macrophages (MDM). Description: Confocal imaging of CatD activity in monocyte-derived macrophages. Format: cell-based. As to conditions: Pepstatin A 20 μM, S. pneumoniae MOI 10:1, CatD-P3 10 μM.
Protocol: Confocal fluorescence microscopy (λex 488, λem 512 nm) images of the detection of CatD activity in monocyte-derived macrophages. […] Mock infected macrophages (no bacteria) were used as a control (left panel). […] At 10 h the cells were washed, fixed in 2% paraformaldehyde and cell nuclei were counter-stained with DAPI (λex 405, λem 461 nm).
Human MDM were matured in 24-well Corning tissue culture plates over 14 days from Peripheral Blood Mononuclear cells obtained healthy volunteers by informed written consent, under ethical approval 21-EMREC-041. Following maturation, the MDM were removed from wells by treatment with Accutase (BioLegend) and re-seeded onto iBidi 8-well chamber slides. […] Following fixation, cells were washed again with 3 × PBS, with DAPI (0.1 µg/mL) added in the 2nd PBS wash for 10 min.
In these experiments, macrophages were incubated for 6 h in the presence or absence (Mock)
(20 μM) was added aoer 4 h. At 10 h the cells were washed, ﬁxed in 2% paraformaldehyde and cell nuclei
were counter-stained with DAPI (λex 405, λem 461 nm).

Regarding `CC1=CC(C)=[N+]2C1=C(c1ccccc1)c1c(C)cc(C)n1[B-]2(F)F` [BODIPY, 1,3,5,7-tetramethyl-8-phenyl-4,4-difluoroboradiazaindacene], the stability to acids entry in data set [1] is “not stable to acids”.

Regarding `CC1=CC(C)=[N+]2C1=C(c1ccc(C(=O)ON3C(=O)CCC3=O)cc1)c1c(C)cc(C)n1[B-]2(F)F` [compound 2], in data set [2], the “fluorescence quantum yield Φ” value was 0.6 and the “pH sensitivity of fluorescence” value is recorded as “pH insensitive”.

For orientation: Km means the substrate concentration at which the rate is half of its maximum. By kcat is commonly meant the number of substrate molecules converted per active site and unit of time at saturation. As for “Ala-Ile-Ala-Phe↑Phe-Ser-Arg-Gln [kallistatin, natural CatD substrate kallistatin, from which Pimenta et al. derived the substrate]”, in the data set on human cathepsin D, the Michaelis constant (Km) was 0.27 µM and the kcat was 16.25 s⁻¹.

Turning to Pepstatin A, the “effect of Pepstatin A on CatD-P3 fluorescence in infected macrophages” value in data set [3] is “a decrease in the fluorescence signal; also recorded: prevented CatD-P3 activation resulting in reduced/no green fluorescence; also recorded: marked decrease in fluorescent signal”.
